According to the NIST ThermoML archive (doi:10.1021/acs.jced.8b00213):

How the values were obtained:
[1] = xn = mol fraction of the nth substance listed; conditions: 100 kPa, Liquid, x1 = 0.25; for electrical conductivity: Alternating current cell with electrodes; for speed of sound: Single path-length method; for mass density: Vibrating tube method; for viscosity: Falling or rolling sphere viscometry
[2] = refractive index (Na D-line) (dimensionless); xn = mol fraction of the nth substance listed; conditions: 100 kPa, Liquid, Standard Abbe refractometry, x1 = 0.25

CCCC[N+](CCCC)(CCCC)Cc1ccccc1.[Cl-] [benzyltributylammonium chloride] + OCC(O)CO
Conditions	electrical conductivity, [1] [S/m]	mass density, [1] [kg/m3]	refractive index, [2]	speed of sound, [1] [m/s]	viscosity, [1] [mPa·s]
283.15 K	0.003	1112.02	1.5095	1908	–
288.15 K	0.005	1108.9	1.5079	1866.4	–
293.15 K	0.007	1105.78	1.5065	1833	–
298.15 K	0.009	1102.66	1.5051	1805.3	2328.1
303.15 K	0.013	1099.54	1.5036	1782	1709.2
308.15 K	0.019	1096.41	1.5021	1761.7	1112.1
313.15 K	0.025	1093.28	1.5006	1743.5	740.9
318.15 K	0.038	1090.07	1.4992	1726.8	497.7
323.15 K	0.047	1086.95	1.4977	1711.2	346.1
328.15 K	0.065	1083.85	1.4962	1696	254.6
333.15 K	0.086	1080.72	1.4948	1681.5	185.3
338.15 K	0.109	1077.58	1.4933	1667.3	138.1
343.15 K	0.138	1074.43	1.4917	1653.9	105

CCCC[N+](CCCC)(CCCC)Cc1ccccc1.[Cl-] [benzyltributylammonium chloride] + OCCO
Conditions	electrical conductivity, [1] [S/m]	mass density, [1] [kg/m3]	refractive index, [2]	speed of sound, [1] [m/s]	viscosity, [1] [mPa·s]
283.15 K	0.03	1045.37	1.4993	1734.9	901.4
288.15 K	0.039	1042.15	1.4979	1716.3	598.4
293.15 K	0.048	1039	1.4963	1698.9	415.2
298.15 K	0.064	1035.88	1.4947	1682.2	286
303.15 K	0.081	1032.74	1.4932	1666.2	211
308.15 K	0.099	1029.6	1.4917	1650.5	155.5
313.15 K	0.122	1026.44	1.4901	1635.2	117.1
318.15 K	0.148	1023.29	1.4886	1620.1	89.9
323.15 K	0.181	1020.13	1.4871	1605.2	70.7
328.15 K	0.219	1016.97	1.4855	1590.5	55.8
333.15 K	0.262	1013.82	1.484	1576	43.6
338.15 K	0.315	1010.67	1.4825	1561.7	34.9
343.15 K	0.365	1007.53	1.4809	1547.9	28.1
